Tests used:
[1] = biological target: T1, human D2R/β-arrestin (Homo sapiens (Human), UniProt P14416); experiment: β-Arrestin agonist assay (PathHunter); assay type: cell-based; conditions: CHO-K1 cell line expressing human D2R/β-arrestin
Outline: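 Readout follows addition of Buffer:Emerald II:Galactor-Star reagent (19:5:1) to agonist-treated plates, measured as luminescence or fluorescence.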

[2] = biological target: T1, human D2R/β-arrestin; experiment: Gi/cAMP agonist assay (Lance Ultra cAMP, Forskolin); assay type: cell-based; conditions: CHO-K1 cell line expressing human D2R/β-arrestin
Outline: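 Read-out was Lance Ultra competitive TR-FRET (Eu-cAMP tracer plus ULight-anti-cAMP) following forskolin-induced cAMP production. Before forskolin stimulation, compounds were pin-transferred onto the seeded cells for 10 min at 37 °C.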

[3] = biological target: T1, human D2R/β-arrestin; experiment: cell-based; conditions: β-arrestin Antagonist, CHO-K1 cell line expressing human D2R/β-arrestin; quinpirole used as agonist
[4] = biological target: T1, human D2R/β-arrestin; experiment: cell-based; conditions: cAMP Antagonist, CHO-K1 cell line expressing human D2R/β-arrestin; quinpirole used as agonist
[5] = Microsomal stability, mouse

T1 sequence (P14416 whole entry): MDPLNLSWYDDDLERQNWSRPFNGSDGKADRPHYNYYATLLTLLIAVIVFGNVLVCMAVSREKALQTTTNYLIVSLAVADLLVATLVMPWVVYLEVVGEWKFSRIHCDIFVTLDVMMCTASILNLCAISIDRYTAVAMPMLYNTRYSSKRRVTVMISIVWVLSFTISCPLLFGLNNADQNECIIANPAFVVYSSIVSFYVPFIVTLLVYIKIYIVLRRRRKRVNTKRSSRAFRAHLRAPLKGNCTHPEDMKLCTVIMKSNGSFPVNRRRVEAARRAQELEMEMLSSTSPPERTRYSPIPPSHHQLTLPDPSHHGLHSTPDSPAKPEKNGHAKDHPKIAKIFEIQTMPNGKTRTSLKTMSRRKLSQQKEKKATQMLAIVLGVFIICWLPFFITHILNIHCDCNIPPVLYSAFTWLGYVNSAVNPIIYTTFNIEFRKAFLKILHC

SMILES | EC50 [1] [µM] | EC50 [2] [µM] | IC50 [3] [µM] | IC50 [4] [µM] | Microsomal Stability: % remaining after 60 minutes [5]
O=C(NC(c1cccc(OC(F)(F)F)c1)c1ccccn1)C1CCN(CCOc2ccccc2)CC1 (centres unmarked) [Compound 118, 1-(2-phenoxyethyl)-N-(pyridin-2-yl(3-(trifluoromethoxy)phenyl)methyl) piperidine-4-carboxamide] | > 30 | < 0.1 | 1 to 10 | > 30 | 
O=C(NC(c1ccc2c(c1)OC(F)(F)O2)c1ccccn1)C1CCN(CCOc2ccccc2)CC1 (centres unmarked) [Compound 119] | > 30 | < 0.1 | 0.1 to 1 | > 30 | 
FC(F)(F)c1ccccc1OCCN1CCC(CNC(c2ccc(Cl)cc2)c2ccccn2)CC1 (centres unmarked) [Compound 120, 1-(4-chlorophenyl)-1-(pyridin-2-yl)-N-((1-(2-(2-(trifluoromethyl)phenoxy)ethyl)piperidin-4-yl)methyl)methanamine] | > 30 | > 30 | < 0.1 | < 0.1 | 
Fc1ccc(C(NCC2CCN(CCOc3ccccc3F)CC2)c2ccccn2)cc1 (centres unmarked) [Compound 122, N-((1-(2-(2-fluorophenoxy)ethyl)piperidin-4-yl)methyl)-1-(4-fluorophenyl)-1-(pyridin-2-yl) methanamine] | > 30 | 1 to 10 | 0.1 to 1 | 0.1 to 1 | 
O=C(NC1CCN(CCOc2ccccc2)CC1)C(c1ccc(Cl)cc1)c1ccccn1 (centres unmarked) [Compound 126, 2-(4-chlorophenyl)-N-(1-(2-phenoxyethyl)piperidin-4-yl)-2-(pyridin-2-yl)acetamide] | > 30 | < 0.1 | 1 to 10 | > 30 | 
COc1cccc(C(NC(=O)C2CCN(CCOc3ccccc3)CC2)c2cocn2)c1 (centres unmarked) [Compound 129, N-((3-methoxyphenyl)(oxazol-4-yl)methyl)-1-(2-phenoxyethyl)piperidine-4-carboxamide] | > 30 | 1 to 10 | > 30 | > 30 | 
CN(CC1(C)CCN(CCOc2ccccc2)CC1)C(c1ccc(Cl)cc1)c1ccccn1 (centres unmarked) [Compound 131, 1-(4-chlorophenyl)-N-methyl-N-((4-methyl-1-(2-phenoxyethyl)piperidin-4-yl)methyl)-1-(pyridin-2-yl)methanamine] | 1 to 10 | < 0.1 | 1 to 10 | > 30 | 
Fc1ccc(OCCN2CCC(CNC(c3ccc(Cl)cc3)c3ccccn3)CC2)cc1 (centres unmarked) [Compound 132, 1-(4-chlorophenyl)-N-((1-(2-(4-fluorophenoxy)ethyl)piperidin-4-yl)methyl)-1-(pyridin-2-yl)methanamine] | > 30 | > 30 | 1 to 10 | 1 to 10 | 
CC(C)N(CC1CCN(CCOc2ccccc2F)CC1)C(c1ccc(Cl)cc1)c1ccccn1 (centres unmarked) [Compound 133, N-((4-chlorophenyl)(pyridin-2-yl)methyl)-N-((1-(2-(2-fluorophenoxy)ethyl)piperidin-4-yl)methyl)propan-2-amine] | > 30 | < 0.1 | < 0.1 | < 0.1 | 
COc1cccc(C(c2ccccn2)N(CC2CCN(CCOc3ccccc3F)CC2)C(C)C)c1 (centres unmarked) [Compound 134, N-((1-(2-(2-fluorophenoxy)ethyl)piperidin-4-yl)methyl)-N-((3-methoxyphenyl)(pyridin-2-yl)methyl)propan-2-amine] | > 30 | < 0.1 | 0.1 to 1 | 0.1 to 1 | 
Fc1ccccc1OCCN1CCC(CN(CC(F)(F)F)C(c2ccc(Cl)cc2)c2ccccn2)CC1 (centres unmarked) [Compound 136, N-((4-chlorophenyl)(pyridin-2-yl)methyl)-2,2,2-trifluoro-N-((1-(2-(2-fluorophenoxy)ethyl)piperidin-4-yl)methyl)ethan-1-amine] | > 30 | 1 to 10 | < 0.1 | < 0.1 | 
CN(CC1CCN(CCOc2ccccc2F)CC1)C(c1ccc2c(c1)OCO2)c1ccccn1 (centres unmarked) [Compound 138, 1-(benzo[d][1,3]dioxol-5-yl)-N-((1-(2-(2-fluorophenoxy)ethyl)piperidin-4-yl)methyl)-N-methyl-1-(pyridin-2-yl)methanamine] | > 30 | 0.1 to 1 | 0.1 to 1 | > 30 | 
Fc1ccccc1OCCN1CCC(CNC(c2ccc3c(c2)OCO3)c2ccccn2)CC1 (centres unmarked) [Compound 139, 1-(benzo[d][1,3]dioxol-5-yl)-N-((1-(2-(2-fluorophenoxy)ethyl)piperidin-4-yl)methyl)-1-(pyridin-2-yl)methanamine] | > 30 | 1 to 10 | 1 to 10 | 0.1 to 1 | 
O=C(NC(c1ccc(Cl)cc1)c1ccccn1)C1CCN(CC2COc3ccccc3O2)CC1 (centres unmarked) [Compound 140, N-((4-chlorophenyl)(pyridin-2-yl)methyl)-1-((2,3-dihydrobenzo[b][1,4]dioxin-2-yl)methyl)piperidine-4-carboxamide] | > 30 | 1 to 10 | 1 to 10 | 1 to 10 | 
COc1cccc(C(NC(=O)C2(C)CCN(CCOc3ccccc3)CC2)c2ccccn2)c1 (centres unmarked) [Compound 143, N-((3-methoxyphenyl)(pyridin-2-yl)methyl)-4-methyl-1-(2-phenoxyethyl)piperidine-4-carboxamide] | 1 to 10 | 0.1 to 1 | 1 to 10 | > 30 | 
CC1(C(=O)NC(c2ccc(Cl)cc2)c2ccccn2)CCN(CCOc2ccccc2)CC1 (centres unmarked) [Compound 144, N-((4-chlorophenyl)(pyridin-2-yl)methyl)-4-methyl-1-(2-phenoxyethyl)piperidine-4-carboxamide] | < 0.1 | < 0.1 | < 0.1 | > 30 | 
Oc1c(CN2CCN(c3ccccn3)CC2)cc(Cl)c2cccnc12 [MLS1547, reference compound] | > 30 | < 0.1 | 1 to 10 | > 30 | 
O=C1CCc2ccc(OCCCCN3CCCN(c4cccc(Cl)c4Cl)CC3)nc2N1 [UNC9975, reference compound] | > 30 | < 0.1 | 0.1 to 1 | 0.1 to 1 | 
Clc1cccc(C2CCN(CCCOc3ccc4scnc4c3)CC2)c1Cl [UNC9994, reference compound] | 0.1 to 1 | < 0.1 | 0.1 to 1 | > 30 | 

The remaining lines, values ahead:

EC50 [1] [µM] | EC50 [2] [µM] | IC50 [3] [µM] | IC50 [4] [µM] | Microsomal Stability: % remaining after 60 minutes [5] | SMILES
> 30 | > 30 | 0.1 to 1 | 0.1 to 1 | m1% | O=C(NC(c1ccc(Cl)cc1)c1ccncc1F)C1CCN(CCOc2ccccc2F)CC1 (single isomer, unassigned) [Compound 91b, N-((4-chlorophenyl)(3-fluoropyridin-4-yl)methyl)-1-(2-(2-fluorophenoxy)ethyl)piperidine-4-carboxamide]
> 30 | 0.1 to 1 | 1 to 10 | > 30 |  | O=C(NC(c1ccc(Cl)cc1)c1ccc(F)cn1)C1CCN(CCOc2ccccc2)CC1 (centres unmarked) [Compound 116, N-((4-chlorophenyl)(5-fluoropyridin-2-yl)methyl)-1-(2-phenoxyethyl)piperidine-4-carboxamide]
> 30 | 0.1 to 1 | 1 to 10 | > 30 |  | O=C(NC(c1ccc(Cl)cc1)c1ccncc1F)C1CCN(CCOc2ccccc2)CC1 (centres unmarked) [Compound 117, N-((4-chlorophenyl)(3-fluoropyridin-4-yl)methyl)-1-(2-phenoxyethyl) piperidine-4-carboxamide]
> 30 | > 30 | 0.1 to 1 | 0.1 to 1 |  | Fc1ccccc1OCCN1CCC(CNC(c2ccc(Cl)cc2)c2ccccn2)CC1 (centres unmarked) [Compound 121, 1-(4-chlorophenyl)-N-((1-(2-(2-fluorophenoxy)ethyl)piperidin-4-yl)methyl)-1-(pyridin-2-yl) methanamine]
> 30 | < 0.1 | 0.1 to 1 | > 30 |  | O=C(NC(c1ccc(Cl)cc1)c1ccccc1F)C1CCN(CCOc2cc(F)ccc2F)CC1 (centres unmarked) [Compound 123, N-((4-chlorophenyl)(2-fluorophenyl)methyl)-1-(2-(2,5-difluorophenoxy)ethyl) piperidine-4-carboxamide]
0.1 to 1 | < 0.1 | 1 to 10 | > 30 |  | O=C(NC(c1ccc2c(c1)OC(F)(F)O2)c1ccccn1)C1CCN(CCOc2ccc(F)cc2F)CC1 (centres unmarked) [Compound 130, N-((2,2-difluorobenzo[d][1,3]dioxol-5-yl)(pyridin-2-yl)methyl)-1-(2-(2,4-difluorophenoxy)ethyl)piperidine-4-carboxamide]
> 30 | > 30 | 1 to 10 | 1 to 10 |  | O=C(NC(c1ccc(Cl)cc1)c1ccccn1)C1CCN(CCOc2ccccn2)CC1 (centres unmarked) [Compound 141, N-((4-chlorophenyl)(pyridin-2-yl)methyl)-1-(2-(pyridin-2-yloxy)ethyl)piperidine-4-carboxamide]
> 30 | > 30 | 10 to 30 | 10 to 30 |  | O=C(NC(c1ccc(Cl)cc1)c1ccccn1)C1CCN(CCOc2ccncc2)CC1 (centres unmarked) [Compound 142, N-((4-chlorophenyl)(pyridin-2-yl)methyl)-1-(2-(pyridin-4-yloxy)ethyl)piperidine-4-carboxamide]
> 30 | 10 to 30 | 1 to 10 | 1 to 10 |  | COc1cccc(C(NC(=O)C2CCN(CCOc3ccc(F)cc3F)CC2)c2ccccn2)c1 (centres unmarked) [Compound 145, 1-(2-(2,4-difluorophenoxy)ethyl)-N-((3-methoxyphenyl)(pyridin-2-yl)methyl)piperidine-4-carboxamide]
